The values that follow come from patent publication US20260193278A1, “NOVEL PHTHALOCYANINE COMPOUNDS AND THE USE THEREOF FOR THE TREATMENT OF DISEASES” (RHODES UNIVERSITY, priority 2022, published 2026).

Type in all cases: cell-based
Experiment [1] deals with E. coli. The experiment can be described thus: Dark toxicity against E. coli, concentration study at 0 min (CFU counting). The conditions noted are these: in the dark; for Ecoli log CFU/ml (logarithmic reduction value): at the concentration of the μM column; for Ecoli μM (concentration corresponding to the logarithmic reduction): range tested 0-15 μM. The protocol:
(§1) 500 μM stock solutions of the samples were prepared in ultra-pure water (5% DMSO) and used at different concentrations in the biological assays.
(§2) Two bacterial strains were used for the PACT studies; S. aureus as a gram-(+) bacterium and E. coli as a gram-(−) negative bacterium. Stock cultures were grown aerobically in 6 mL of nutrient broth incubated at 37° C. on a rotary shaker (~200 rpm) to obtain bacteria cultures. The incubation was maintained until the optical density of the culture at 600 nm was determined to be between 0.6 and 0.8. The resulting bacterial solution was centrifuged to remove the broth, and bacterial cells were washed three times with PBS. The solution of the bacteria was prepared by diluting with PBS to obtain […] bacteria solutions corresponding to ~10^9 and ~10^8 colony forming units (CFU)/mL, respectively.
(§3) The bacteria/photosensitizer mixtures were incubated in an oven equipped with a shaker for 30 min in the dark at 37° C. before plating. 100 μL of solution was taken from the suspension and was immediately inoculated on agar plates to determine the activity at 0 min without treatment. The number of colonies was then counted on each plate after 18 h of incubation at 37° C. Control treatments were performed in the absence of photosensitizer. All experiments were carried out three times. The data for CFU/mL were converted to the logarithmic form.

For experiment [2], the system named is MCF-7 (human breast adenocarcinoma) cells. Nature of the experiment: In vitro dark cytotoxicity, MCF-7 cells (anticancer studies). The following applies: MCF-7, dark; for Min. Death conc. / Cell death: 24 h; for Cell death: at the Min. Death conc. The protocol: MCF-7 (human breast adenocarcinoma) cells were cultured in Dulbecco's modified Eagle's medium-10% fetal bovine serum (DMEM-FBS) and PSA (penicillin/streptomycin/Amphotericin B) at 37° C. in an incubator (5% CO2) in 75 cm^2 vented flasks. The cultures were grown as a monolayer. The growth cells were transferred to well plates by trypsinizing with 0.25% trypsin-EDTA. The Pc stock concentrations were prepared by separately dissolving them in DMSO (1%) and diluting in water and the Pc gradient concentration was prepared by taking known aliquots from the stock and finally made up to marked volume with supplemented media with phenol red.
It was studied from […] both in the dark. 100 μL each of the newly prepared gradient Pcs concentration of 0 μg/mL (control), 5 μg/mL, 10 μg/mL, 20 μg/mL, 40 μg/mL, 60 μg/mL 80 μg/mL, 100 μg/mL and 120 μg/mL were administered on the incubated seeded cells. The 96 well cell culture plates containing the cells and the Pcs were incubated at 37° C. and 5% CO2 in the dark for 24 h. After 24 h treatment, the wells were rinsed with 100 μL DPBS. Cell survival was expressed as percentage of control cells (cells without Pcs). Post treatment cell viability was measured using the cell proliferation […] reagent (WST-1 assay) on a Synergy 2 multi-mode microplate reader (BioTek®) at a wavelength of 450 nm according to the following equation 1.

In experiment [3] the test system is S. aureus. Nature of the experiment: Dark toxicity against S. aureus, concentration study at 0 min (CFU counting). The following applies: for log reduction (dark toxicity): 0 min; for Staph log CFU/ml (logarithmic reduction value) / Staph μM (concentration corresponding to the logarithmic reduction): in the dark, at 0 min; for Staph log CFU/ml (logarithmic reduction value): at the concentration of the μM column; for Staph μM (concentration corresponding to the logarithmic reduction): range tested 0-10 μM. The protocol:
as §1, §2, §3

Turning to `C[n+]1c(-c2ccc(Oc3ccc4c(c3)C3=Nc5c6ccc(Oc7ccc(-c8[nH]c9cc(Cl)cc(Cl)c9[n+]8C)cc7)cc6c6[n]5[Co][n]5c(c7ccc(Oc8ccc(-c9[nH]c%10cc(Cl)cc(Cl)c%10[n+]9C)cc8)cc7c5=NC5=NC(=N6)c6cc(Oc7ccc(-c8[nH]c9cc(Cl)cc(Cl)c9[n+]8C)cc7)ccc65)=NC4=N3)cc2)[nH]c2cc(Cl)cc(Cl)c21.[I-].[I-].[I-].[I-]` [Compound 200], in experiment [1], the “Ecoli log CFU/ml (logarithmic reduction value)” value is given as 8.79 log CFU/ml and the “Ecoli μM (concentration corresponding to the logarithmic reduction)” value is recorded as 1 μM. In addition, in experiment [2], the “optimal concentration to kill the cancer cells” value worked out at 40 µM, the “Min. Death conc.” value was determined as 40 µM, the Cell death came to 80.9% and the “cancer cells killed at the optimal concentration” value is given as 80.9%. Besides, in experiment [3] (at 0.5 μM), the “destruction of bacteria (FIG. 2)” value is “complete destruction”. In addition, the “log reduction (dark toxicity)” value in experiment [3] (at 0.5-10 μM) was 9.63. In experiment [3], the “Staph log CFU/ml (logarithmic reduction value)” value amounted to 9.61 log CFU/ml and the “Staph μM (concentration corresponding to the logarithmic reduction)” value came out at 0.5 μM.

`C[n+]1c(-c2ccc(Oc3ccc4c(c3)C3=Nc5c6ccc(Oc7ccc(-c8[nH]c9cc(Cl)cc(Cl)c9[n+]8C)cc7)cc6c6[n]5[Cu][n]5c(c7ccc(Oc8ccc(-c9[nH]c%10cc(Cl)cc(Cl)c%10[n+]9C)cc8)cc7c5=NC5=NC(=N6)c6cc(Oc7ccc(-c8[nH]c9cc(Cl)cc(Cl)c9[n+]8C)cc7)ccc65)=NC4=N3)cc2)[nH]c2cc(Cl)cc(Cl)c21.[I-].[I-].[I-].[I-]` [Compound 201]: in experiment [1], the “Ecoli log CFU/ml (logarithmic reduction value)” value was determined as 8.79 log CFU/ml and the “Ecoli μM (concentration corresponding to the logarithmic reduction)” value amounted to 12.5 μM. In addition, in experiment [2], the “optimal concentration to kill the cancer cells” value worked out at 120 µM, the “Min. Death conc.” value came out at 120 µM, the Cell death was 45.4% and the “cancer cells killed at the optimal concentration” value came to 45.4%. For the same compound, in experiment [3] (at 10 μM), the “log reduction (dark toxicity)” value was 9.63. Further, in experiment [3], the “Staph log CFU/ml (logarithmic reduction value)” value worked out at 9.61 log CFU/ml and the “Staph μM (concentration corresponding to the logarithmic reduction)” value was 8 μM.

For the compound `C[n+]1c(-c2ccc(Oc3ccc4c(c3)C3=Nc5c6ccc(Oc7ccc(-c8[nH]c9cc(Cl)c(Cl)cc9[n+]8C)cc7)cc6c6[n]5[Zn][n]5c(c7ccc(Oc8ccc(-c9[nH]c%10cc(Cl)c(Cl)cc%10[n+]9C)cc8)cc7c5=NC5=NC(=N6)c6cc(Oc7ccc(-c8[nH]c9cc(Cl)c(Cl)cc9[n+]8C)cc7)ccc65)=NC4=N3)cc2)[nH]c2cc(Cl)c(Cl)cc21.[I-].[I-].[I-].[I-]` [Compound 207], in experiment [1], the “Ecoli log CFU/ml (logarithmic reduction value)” value was 8.79 log CFU/ml and the “Ecoli μM (concentration corresponding to the logarithmic reduction)” value was 2.5 μM. Moreover, in experiment [2], the “Min. Death conc.” value is 120 µM and the Cell death turned out to be 38.3%. For the same compound, in experiment [3], the “Staph log CFU/ml (logarithmic reduction value)” value was 9.31 log CFU/ml and the “Staph μM (concentration corresponding to the logarithmic reduction)” value stood at 4 μM.

Turning to `C[n+]1c(-c2ccc(Oc3ccc4c(c3)C3=Nc5c6ccc(Oc7ccc(-c8[nH]c9cc(Cl)c(Cl)cc9[n+]8C)cc7)cc6c6[n]5[Co][n]5c(c7ccc(Oc8ccc(-c9[nH]c%10cc(Cl)c(Cl)cc%10[n+]9C)cc8)cc7c5=NC5=NC(=N6)c6cc(Oc7ccc(-c8[nH]c9cc(Cl)c(Cl)cc9[n+]8C)cc7)ccc65)=NC4=N3)cc2)[nH]c2cc(Cl)c(Cl)cc21.[I-].[I-].[I-].[I-]` [Compound 208], in experiment [1], the “Ecoli log CFU/ml (logarithmic reduction value)” value is listed as 8.79 log CFU/ml and the “Ecoli μM (concentration corresponding to the logarithmic reduction)” value is 1 μM. Further, in experiment [2], the “Min. Death conc.” value turned out to be 20 µM and the Cell death turned out to be 78.4%. In experiment [3], the “Staph log CFU/ml (logarithmic reduction value)” value is on record as 9.31 log CFU/ml and the “Staph μM (concentration corresponding to the logarithmic reduction)” value turned out to be 2 μM.

Consider `C[n+]1c(-c2ccc(Oc3ccc4c(c3)C3=Nc5c6ccc(Oc7ccc(-c8[nH]c9cc(Cl)c(Cl)cc9[n+]8C)cc7)cc6c6[n]5[Cu][n]5c(c7ccc(Oc8ccc(-c9[nH]c%10cc(Cl)c(Cl)cc%10[n+]9C)cc8)cc7c5=NC5=NC(=N6)c6cc(Oc7ccc(-c8[nH]c9cc(Cl)c(Cl)cc9[n+]8C)cc7)ccc65)=NC4=N3)cc2)[nH]c2cc(Cl)c(Cl)cc21.[I-].[I-].[I-].[I-]` [Compound 209], for which, in experiment [1], the “Ecoli log CFU/ml (logarithmic reduction value)” value was found to be 8.79 log CFU/ml and the “Ecoli μM (concentration corresponding to the logarithmic reduction)” value is recorded as 2.5 μM. In experiment [2], the “Min. Death conc.” value amounted to 20 µM and the Cell death was 80.4%. Further, in experiment [3], the “Staph log CFU/ml (logarithmic reduction value)” value is on record as 9.31 log CFU/ml and the “Staph μM (concentration corresponding to the logarithmic reduction)” value is reported as 10 μM.

For `C[n+]1c(-c2ccc(Oc3ccc4c(c3)C3=Nc5c6ccc(Oc7ccc(-c8[nH]c9cc(F)cc(Br)c9[n+]8C)cc7)cc6c6[n]5[Zn][n]5c(c7ccc(Oc8ccc(-c9[nH]c%10cc(F)cc(Br)c%10[n+]9C)cc8)cc7c5=NC5=NC(=N6)c6cc(Oc7ccc(-c8[nH]c9cc(F)cc(Br)c9[n+]8C)cc7)ccc65)=NC4=N3)cc2)[nH]c2cc(F)cc(Br)c21.[I-].[I-].[I-].[I-]` [Compound 229], in experiment [1], the “Ecoli log CFU/ml (logarithmic reduction value)” value is 8.79 log CFU/ml and the “Ecoli μM (concentration corresponding to the logarithmic reduction)” value was determined as 10 μM. Besides, in experiment [2], the “Min. Death conc.” value worked out at 10 µM and the Cell death is recorded as 39.4%. In addition, in experiment [3], the “Staph log CFU/ml (logarithmic reduction value)” value was determined as 9.25 log CFU/ml and the “Staph μM (concentration corresponding to the logarithmic reduction)” value stood at 0.5 μM.

On to `C[n+]1c(-c2ccc(Oc3ccc4c(c3)C3=Nc5c6ccc(Oc7ccc(-c8[nH]c9cc(F)cc(Br)c9[n+]8C)cc7)cc6c6[n]5[Co][n]5c(c7ccc(Oc8ccc(-c9[nH]c%10cc(F)cc(Br)c%10[n+]9C)cc8)cc7c5=NC5=NC(=N6)c6cc(Oc7ccc(-c8[nH]c9cc(F)cc(Br)c9[n+]8C)cc7)ccc65)=NC4=N3)cc2)[nH]c2cc(F)cc(Br)c21.[I-].[I-].[I-].[I-]` [Compound 230], for which, in experiment [1], the “Ecoli log CFU/ml (logarithmic reduction value)” value is reported as 8.79 log CFU/ml and the “Ecoli μM (concentration corresponding to the logarithmic reduction)” value stood at 1 μM. In experiment [2], the “Min. Death conc.” value is 5 µM and the Cell death amounted to 54.9%. Also, in experiment [3], the “Staph log CFU/ml (logarithmic reduction value)” value was found to be 9.25 log CFU/ml and the “Staph μM (concentration corresponding to the logarithmic reduction)” value was 0.5 μM.

As to `C[n+]1c(-c2ccc(Oc3ccc4c(c3)C3=Nc5c6ccc(Oc7ccc(-c8[nH]c9cc(F)cc(Br)c9[n+]8C)cc7)cc6c6[n]5[Cu][n]5c(c7ccc(Oc8ccc(-c9[nH]c%10cc(F)cc(Br)c%10[n+]9C)cc8)cc7c5=NC5=NC(=N6)c6cc(Oc7ccc(-c8[nH]c9cc(F)cc(Br)c9[n+]8C)cc7)ccc65)=NC4=N3)cc2)[nH]c2cc(F)cc(Br)c21.[I-].[I-].[I-].[I-]` [Compound 231], in experiment [1], the “Ecoli log CFU/ml (logarithmic reduction value)” value stood at 8.79 log CFU/ml and the “Ecoli μM (concentration corresponding to the logarithmic reduction)” value is given as 12.5 μM. Besides, in experiment [2], the “Min. Death conc.” value came out at 5 µM and the Cell death turned out to be 56.08%. In experiment [3], the “Staph log CFU/ml (logarithmic reduction value)” value turned out to be 9.25 log CFU/ml and the “Staph μM (concentration corresponding to the logarithmic reduction)” value is recorded as 0.5 μM.

With `C[n+]1c(-c2ccc(Oc3ccc4c(c3)C3=Nc5c6ccc(Oc7ccc(-c8[nH]c9cc(Br)cc(Cl)c9[n+]8C)cc7)cc6c6[n]5[Zn][n]5c(c7ccc(Oc8ccc(-c9[nH]c%10cc(Br)cc(Cl)c%10[n+]9C)cc8)cc7c5=NC5=NC(=N6)c6cc(Oc7ccc(-c8[nH]c9cc(Br)cc(Cl)c9[n+]8C)cc7)ccc65)=NC4=N3)cc2)[nH]c2cc(Br)cc(Cl)c21.[I-].[I-].[I-].[I-]` [Compound 233], in experiment [1], the “Ecoli log CFU/ml (logarithmic reduction value)” value came to 8.79 log CFU/ml and the “Ecoli μM (concentration corresponding to the logarithmic reduction)” value turned out to be 1 μM. Also, in experiment [2], the “Min. Death conc.” value is 60 µM and the Cell death was 91.7%. In experiment [3], the “Staph log CFU/ml (logarithmic reduction value)” value worked out at 9.25 log CFU/ml and the “Staph μM (concentration corresponding to the logarithmic reduction)” value is on record as 4 μM.
